This data set has as its system Substrate RNA (SUB-156). Description: RNase P-mediated cleavage assay, single turnover conditions. Format: biochemical, hepatitis B virus (HBV). The note with it: 200 nM EGS, 20 nM substrate, saturating RNase P, 60 min. On the procedure: RNase P-mediated cleavage assay--Human RNase P was purified from HeLa cells according to the published procedures (14). Substrate RNA (SUB-156, FIG. 24) was 5'-end labeled using T4 polynucleotide kinase and [γ-^32P]ATP. The labeling mixture was then heated to 85° C. for 1 min, diluted with RNase-free water, and purified by a MICROSPIN™ G-25 column (Pharmacia) according to the manufacturer's instructions. Cleavage reactions were conducted in a reaction buffer containing 50 mM Tris-HCl (pH 7.4), 25 mM KCl, 10 mM MgCl2 and 0.1 mM EDTA. EGS oligomers and ^32 p-5'-end-labeled RNA substrate were heated in the reaction buffer without MgCl2 to 85° C. for 1 min and then slowly cooled to room temperature. The cleavage reaction was initiated by adding 2 μl of 100 mM MgCl2 and 3 μl of RNase P (enzyme activity for this preparation: cleavage of 0.035 pmol of tRNA^Tyr precursor min^-1 μl^-1). The final reaction volume was 20 μl and the reaction was incubated at 37° C. for 60 min. […] For each sample, cleavage reactions were performed in duplicates and the average values were used. To ensure reproducibility, cleavage assays for each EGS were also repeated in two separate experiments. The all-RNA EGS-159 was used as the reference sample and its cleavage values were counted as 100%. Cleavage percentages of all other EGSs were normalized against EGS-159 (Rel. Cleavage %) except in FIG. 30 and FIG. 31 where absolute cleavage percentages (Abs. Cleavage %) were plotted.
For EGS-single turnover conditions, the final concentrations were 200 nM for EGS and 20(nM for the RNA substrate. For EGS-multiple turnover conditions, the final concentrations were 200 nM for the RNA substrate and 40 nM for EGS. When determination of the time-course was required, the reaction volume was increased to 40 μl. Aliquots of 5-8 μl were removed from the reaction mixture at different time points (e.g. 1, 5, 15, 30 and 60 min), quenched in formamide loading buffer, and loaded onto 15% polyacrylamide/8 M urea gels. Quantitation of the cleavage product and the remaining RNA substrate was achieved using a Molecular Dynamics PHOSPHORIMAGER™.
General considerations--To select lead nuclease-resistant oligonucleotide prototypes as external guide sequences among many possible modifications, a reliable yet rapid in vitro cleavage assay for routine screening was used. Human RNase P, a ribonucleoprotein, is composed of a 340-nt H1 RNA component and one or more proteins (for recent review, see Ref. 16). A 3-step screening strategy was devised: 1) All analogues once synthesized were tested by a fast qualitative cleavage assay under single turnover conditions with 10-fold excess of EGS over target RNA substrate for 60 min. […] This was the best cleavage condition used in this study. Any analogue with a reasonable activity (e.g. more than 5% cleavage) would not be missed, under these circumstances, due to the high detection sensitivity provided by PHOSPHORIMAGER™. 2) Promising analogues were then assayed for stability in 50% human serum.
Regarding “EGS-380: C56 in the T-loop substituted with rA, SEQ ID NO. 40 (guide AGAUGAUAGAAGGUUAGAAUCCUUCACGCCGC; Riboadenosine at tRNA position 56 of T-loop, rest of chemistry not given here)”, the “RNase P-mediated cleavage activity compared to the all-RNA control” value was “effectively substituted”.
Take “EGS-381: C56 in the T-loop substituted with rG, SEQ ID NO. 41 (guide AGAUGAUAGAAGGUUGGAAUCCUUCACGCCGC; Riboguanosine at tRNA position 56 of T-loop, rest of chemistry not given here)”: the “RNase P-mediated cleavage activity compared to the all-RNA control” value is recorded as “effectively substituted”.
With “EGS-400: no RNA residues, remaining riboadenosines replaced by deoxynucleotides, SEQ ID NO. 47 (AGAUGAUAGAAGGUUAGAAUCCUUCACGCCGC; guide RNA; No RNA residues, remaining riboadenosines replaced by deoxynucleotides, other modifications not given here)” the entry was “Significant reduction in activity”.
The result for “EGS-404: no RNA residues, remaining riboadenosines replaced by deoxynucleotides, SEQ ID NO. 48 (AGAUGAUAGAAGGAUAGAAUCCUUCACGCCGC; guide RNA; No RNA residues, remaining riboadenosines replaced by deoxynucleotides, other modifications not given here)” reads “Significant reduction in activity”; that for “EGS-405: no RNA residues, remaining riboadenosines replaced by deoxynucleotides, SEQ ID NO. 49 (AGAUGAUAGAAGGTUAGAAUCCUUCACGCCGC; guide RNA; No RNA residues, remaining riboadenosines replaced by deoxynucleotides, other modifications not given here)”, “Significant reduction in activity”; that for “EGS-406: no RNA residues, remaining riboadenosines replaced by deoxynucleotides, SEQ ID NO. 50 (AGAUGAUAGAAGGUUAGAAUCCUUCACGCCGC; guide RNA; No RNA residues, remaining riboadenosines replaced by deoxynucleotides, other modifications not given here)”, “Significant reduction in activity”.

These data come from patent US6057153A, “Stabilized external guide sequences” (Yale University, priority 1997, dated 2000).
